Columns and labels:
Assay type in all cases: in vivo
[1] = tested on: morning glory (Ipomoea hederacea); assay: Test B postemergence; details: 13 to 15 days
Procedure, shortened: (§1)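 Greenhouse test: chemicals are formulated in a surfactant-containing non-phytotoxic solvent and applied either preemergence to planted seeds or postemergence to plants 2 to 18 cm tall. Response is rated visually versus controls after 13 to 15 days, 0 meaning no effect and 100 complete control.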

[2] = tested on: pigweed (Amaranthus retroflexus); assay: Test B postemergence; details: 13 to 15 days
Procedure, shortened: as §1

[3] = tested on: giant foxtail (Setaria faberii); assay: Test B postemergence; details: 13 to 15 days
Procedure, shortened: as §1

[4] = tested on: barnyardgrass (Echinochloa crus-galli); assay: Test B postemergence; details: 13 to 15 days
Procedure, shortened: as §1

[5] = tested on: lambsquarters (Chenopodium album); assay: Test B postemergence; details: 13 to 15 days
Procedure, shortened: as §1

[6] = tested on: Surinam grass (Brachiaria decumbens); assay: Test B postemergence; details: 13 to 15 days
Procedure, shortened: as §1

[7] = tested on: crabgrass (Digitaria sanguinalis); assay: Test B postemergence; details: 13 to 15 days
Procedure, shortened: as §1

[8] = tested on: wheat (Triticum aestivum); assay: Test B postemergence; details: 13 to 15 days
Procedure, shortened: as §1

[9] = tested on: blackgrass (Alopecurus myosuroides); assay: Test B postemergence; details: 13 to 15 days
Procedure, shortened: as §1

[10] = tested on: wild oat (Avena fatua); assay: Test B postemergence; details: 13 to 15 days
Procedure, shortened: as §1

[11] = tested on: corn (Zea mays); assay: Test B postemergence; details: 13 to 15 days
Procedure, shortened: as §1

[12] = tested on: cocklebur (Xanthium strumarium); assay: Test B postemergence; details: 13 to 15 days
Procedure, shortened: as §1

[13] = tested on: velvetleaf (Abutilon theophrasti); assay: Test B postemergence; details: 13 to 15 days
Procedure, shortened: as §1

[14] = tested on: smallflower flatsedge (Cyperus difformis); assay: Test C flooded paddy test; details: for Flatsedge plant response rating: Flooded Paddy, scale 0 to 100, 0 no effect, 100 complete control; for Plant response rating, Flatsedge: flooded paddy test, scale 0 to 100 (0 no effect, 100 complete control)
Procedure, shortened: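 2-leaf-stage plants, flooded paddy; treated; greenhouse 12–14 days; compared with controls by eye; rated 0–100 (0 none, 100 complete control).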

[15] = tested on: Sunflower; assay: Test C preemergence; details: Rate 250 g/ha, visual evaluation after 12 to 14 days
[16] = tested on: morning glory (Ipomoea hederacea); assay: Test B preemergence; details: scale 0 to 100, 0 no effect, 100 complete control
Procedure, shortened: as §1

[17] = tested on: pigweed (Amaranthus retroflexus); assay: Test B preemergence; details: scale 0 to 100, 0 no effect, 100 complete control
Procedure, shortened: as §1

[18] = tested on: giant foxtail (Setaria faberii); assay: Test B preemergence; details: scale 0 to 100, 0 no effect, 100 complete control
Procedure, shortened: as §1

[19] = tested on: rice (Oryza saliva); assay: Test B preemergence; details: scale 0 to 100, 0 no effect, 100 complete control
Procedure, shortened: as §1

[20] = tested on: barnyardgrass (Echinochloa crus-galli); assay: Test B preemergence; details: scale 0 to 100, 0 no effect, 100 complete control
Procedure, shortened: as §1

[21] = tested on: lambsquarters (Chenopodium album); assay: Test B preemergence; details: scale 0 to 100, 0 no effect, 100 complete control
Procedure, shortened: as §1

[22] = tested on: Surinam grass (Brachiaria decumbens); assay: Test B preemergence; details: scale 0 to 100, 0 no effect, 100 complete control
Procedure, shortened: as §1

[23] = tested on: crabgrass (Digitaria sanguinalis); assay: Test B preemergence; details: scale 0 to 100, 0 no effect, 100 complete control
Procedure, shortened: as §1

[24] = tested on: corn (Zea mays); assay: Test B preemergence; details: scale 0 to 100, 0 no effect, 100 complete control
Procedure, shortened: as §1

[25] = tested on: cocklebur (Xanthium strumarium); assay: Test B preemergence; details: scale 0 to 100, 0 no effect, 100 complete control
Procedure, shortened: as §1

[26] = tested on: velvetleaf (Abutilon theophrasti); assay: Test B preemergence; details: scale 0 to 100, 0 no effect, 100 complete control
Procedure, shortened: as §1

[27] = tested on: Nightshade; assay: Test C preemergence; details: Rate 250 g/ha, visual evaluation after 12 to 14 days
[28] = Rate 125 g/ha, scale 0 (no effect) to 100 (complete control)
[29] = Rate 500 g/ha, scale 0 to 100, 0 is no effect, 100 is complete control

In the case of CCC(CC)c1ccn(C2SCN(c3cccc(C(F)(F)F)c3)C2=O)n1 (stereo not drawn) [Compound 25], the “Plant response rating, Morningglory” value [1, 28] is reported as 90, the “Plant response rating, Morningglory” value [1, 29] is reported as 100 and the “Plant response rating, Pigweed” value [2, 28] is reported as 70. For the same molecule, the “Plant response rating, Pigweed” value [2, 29] was 100, the “Plant response rating, Foxtail, Giant” value [3, 28] was 20 and the “Plant response rating, Foxtail, Giant” value [3, 29] was 80. For the same molecule, the “Plant response rating, Barnyardgrass” value [4, 28] was 100, the “Plant response rating, Barnyardgrass” value [4, 29] was 100 and the “Plant response rating, Lambsquarters” value [5, 28] was 100. The “Plant response rating, Lambsquarters” value [5, 29] was 100, the “Plant response rating, Surinam grass” value [6, 28] was 0 and the “Plant response rating, Surinam grass” value [6, 29] was 40. The “Plant response rating, Crabgrass” value [7, 28] was 60, the “Plant response rating, Crabgrass” value [7, 29] was 90 and the “Plant response rating, Wheat” value [8, 28] was 0. For the same molecule, the “Plant response rating, Wheat” value [8, 29] was 0, the “Plant response rating, Blackgrass” value [9, 28] was 0 and the “Plant response rating, Blackgrass” value [9, 29] was 0. The “Plant response rating, Wild Oat” value [10, 28] was 0, the “Plant response rating, Wild Oat” value [10, 29] was 0 and the “Plant response rating, Corn” value [11, 28] was 0. For the same molecule, the “Plant response rating, Corn” value [11, 29] was 60, the “Plant response rating, Cocklebur” value [12, 28] was 60 and the “Plant response rating, Cocklebur” value [12, 29] was 70. The “Plant response rating, Velvetleaf” value [13, 28] was 0, the “Plant response rating, Velvetleaf” value [13, 29] was 20 and the “Flatsedge plant response rating” value ([14]; Rate 250 g/ha) was 100. The “Flatsedge plant response rating” value ([14]; Rate 500 g/ha) was 100, the “Plant response rating, Flatsedge” value ([14]; Rate 62 g/ha) was 100 and the “Plant response rating, Flatsedge” value ([14]; Rate 125 g/ha) was 100. The “Plant response rating (0 to 100), Sunflower” value [15] was 70, the “Plant response rating, Morningglory” value ([16]; Preemergence, Rate 500 g/ha) was 90 and the “Plant response rating, Morningglory” value ([16]; preemergence, Rate 125 g/ha) was 0. For the same molecule, the “Plant response rating, Pigweed” value ([17]; Preemergence, Rate 500 g/ha) was 100, the “Plant response rating, Pigweed” value ([17]; preemergence, Rate 125 g/ha) was 100 and the “Plant response rating, Foxtail, Giant” value ([18]; Preemergence, Rate 500 g/ha) was 100. The “Plant response rating, Foxtail, Giant” value ([18]; preemergence, Rate 125 g/ha) was 100, the “Plant response rating, Rice” value ([19]; Preemergence, Rate 500 g/ha) was 0 and the “Plant response rating, Rice” value ([19]; preemergence, Rate 125 g/ha) was 0. For the same molecule, the “Plant response rating, Barnyardgrass” value ([20]; Preemergence, Rate 500 g/ha) was 100, the “Plant response rating, Barnyardgrass” value ([20]; preemergence, Rate 125 g/ha) was 100 and the “Plant response rating, Lambsquarters” value ([21]; Preemergence, Rate 500 g/ha) was 100. For the same molecule, the “Plant response rating, Lambsquarters” value ([21]; preemergence, Rate 125 g/ha) was 100, the “Plant response rating, Surinam grass” value ([22]; Preemergence, Rate 500 g/ha) was 80 and the “Plant response rating, Surinam grass” value ([22]; preemergence, Rate 125 g/ha) was 80. The “Plant response rating, Crabgrass” value ([23]; Preemergence, Rate 500 g/ha) was 100, the “Plant response rating, Crabgrass” value ([23]; preemergence, Rate 125 g/ha) was 100 and the “Plant response rating, Corn” value ([24]; Preemergence, Rate 500 g/ha) was 0. For the same molecule, the “Plant response rating, Corn” value ([24]; preemergence, Rate 125 g/ha) was 0, the “Plant response rating, Cocklebur” value ([25]; Preemergence, Rate 500 g/ha) was 0 and the “Plant response rating, Cocklebur” value ([25]; preemergence, Rate 125 g/ha) was 0. For the same molecule, the “Plant response rating, Velvetleaf” value ([26]; Preemergence, Rate 500 g/ha) was 0, the “Plant response rating, Velvetleaf” value ([26]; preemergence, Rate 125 g/ha) was 0 and the “Plant response rating (0 to 100), Nightshade” value [27] was 90.

CC(C)c1ccn(C2OCN(c3cccc(C(F)(F)F)c3)C2=O)n1 (stereo not drawn) [Compound 27] was tested, and the “Plant response rating, Morningglory” value [1, 28] was 0, the “Plant response rating, Morningglory” value [1, 29] was 50 and the “Plant response rating, Pigweed” value [2, 28] was 40. For the same molecule, the “Plant response rating, Pigweed” value [2, 29] was 60, the “Plant response rating, Foxtail, Giant” value [3, 28] was 0 and the “Plant response rating, Foxtail, Giant” value [3, 29] was 30. The “Plant response rating, Barnyardgrass” value [4, 28] was 20, the “Plant response rating, Barnyardgrass” value [4, 29] was 60 and the “Plant response rating, Lambsquarters” value [5, 28] was 50. For the same molecule, the “Plant response rating, Lambsquarters” value [5, 29] was 90, the “Plant response rating, Surinam grass” value [6, 28] was 0 and the “Plant response rating, Surinam grass” value [6, 29] was 20. The “Plant response rating, Crabgrass” value [7, 28] was 20, the “Plant response rating, Crabgrass” value [7, 29] was 40 and the “Plant response rating, Wheat” value [8, 28] was 0. For the same molecule, the “Plant response rating, Wheat” value [8, 29] was 0, the “Plant response rating, Blackgrass” value [9, 28] was 0 and the “Plant response rating, Blackgrass” value [9, 29] was 0. The “Plant response rating, Wild Oat” value [10, 28] was 0, the “Plant response rating, Wild Oat” value [10, 29] was 0 and the “Plant response rating, Corn” value [11, 28] was 0. The “Plant response rating, Corn” value [11, 29] was 10, the “Plant response rating, Cocklebur” value [12, 28] was 0 and the “Plant response rating, Cocklebur” value [12, 29] was 30. For the same molecule, the “Plant response rating, Velvetleaf” value [13, 28] was 0, the “Plant response rating, Velvetleaf” value [13, 29] was 0 and the “Flatsedge plant response rating” value ([14]; Rate 250 g/ha) was 100. For the same molecule, the “Flatsedge plant response rating” value ([14]; Rate 500 g/ha) was 100, the “Plant response rating, Flatsedge” value ([14]; Rate 62 g/ha) was 90 and the “Plant response rating, Flatsedge” value ([14]; Rate 125 g/ha) was 90. For the same molecule, the “Plant response rating (0 to 100), Sunflower” value [15] was 20, the “Plant response rating, Morningglory” value ([16]; Preemergence, Rate 500 g/ha) was 0 and the “Plant response rating, Morningglory” value ([16]; preemergence, Rate 125 g/ha) was 0. The “Plant response rating, Pigweed” value ([17]; Preemergence, Rate 500 g/ha) was 100, the “Plant response rating, Pigweed” value ([17]; preemergence, Rate 125 g/ha) was 100 and the “Plant response rating, Foxtail, Giant” value ([18]; Preemergence, Rate 500 g/ha) was 90. The “Plant response rating, Foxtail, Giant” value ([18]; preemergence, Rate 125 g/ha) was 0, the “Plant response rating, Rice” value ([19]; Preemergence, Rate 500 g/ha) was 40 and the “Plant response rating, Rice” value ([19]; preemergence, Rate 125 g/ha) was 0. The “Plant response rating, Barnyardgrass” value ([20]; Preemergence, Rate 500 g/ha) was 100, the “Plant response rating, Barnyardgrass” value ([20]; preemergence, Rate 125 g/ha) was 30 and the “Plant response rating, Lambsquarters” value ([21]; Preemergence, Rate 500 g/ha) was 100. The “Plant response rating, Lambsquarters” value ([21]; preemergence, Rate 125 g/ha) was 100, the “Plant response rating, Surinam grass” value ([22]; Preemergence, Rate 500 g/ha) was 0 and the “Plant response rating, Surinam grass” value ([22]; preemergence, Rate 125 g/ha) was 0. The “Plant response rating, Crabgrass” value ([23]; Preemergence, Rate 500 g/ha) was 90, the “Plant response rating, Crabgrass” value ([23]; preemergence, Rate 125 g/ha) was 0 and the “Plant response rating, Corn” value ([24]; Preemergence, Rate 500 g/ha) was 0. The “Plant response rating, Corn” value ([24]; preemergence, Rate 125 g/ha) was 0, the “Plant response rating, Cocklebur” value ([25]; Preemergence, Rate 500 g/ha) was 0 and the “Plant response rating, Cocklebur” value ([25]; preemergence, Rate 125 g/ha) was 0. The “Plant response rating, Velvetleaf” value ([26]; Preemergence, Rate 500 g/ha) was 0, the “Plant response rating, Velvetleaf” value ([26]; preemergence, Rate 125 g/ha) was 0 and the “Plant response rating (0 to 100), Nightshade” value [27] was 0.
